{"source": "patent US12653794B2", "about": "“Dextromethorphan transdermal delivery device” (SHINKEI THERAPEUTICS, INC., priority 2017, dated 2026)", "key": {"[1]": {"assay": "Transdermal flux test, Franz Diffusion Cell method", "format": "in vitro ADME, human", "description": "Transdermal flux of Dextromethorphan from the patch was tested using human cadaver epidermis by Franz Diffusion Cell method.\nPatch formulations A, B, and C prepared in Example 1 were used for a skin permeation study using the following protocol: • Franz cell assembly—Logan Instruments (6-cell unit) • Each cell has 12 mL volume, 1.5 cm diameter orifice • Receptor medium is a phosphate buffer solution (PBS) pH 7.4 • Cell temperature is maintained at 37° C. • Sampling method: take 1.5 mL for HPLC assay, empty cell, replace with fresh medium • Sampling time points: 4, 8, 12, 24 and 48 hours • Cadaver skin is used and is obtained from New York Fire Fighters Skin Bank. Skin No. MM07116, While, person, skin site: left posterior leg. • Assay method for media: HPLC based.\nFormulations D0-D2 were also tested for their in vitro flux characteristics following the same protocol as described in Example 2."}, "[2]": {"settings": "human, in vivo; cited from earlier work"}, "[3]": {"assay": "Transdermal delivery rate without enhancer", "text": "The unpredictability of transdermal administration is notorious. […] Structurally and by calculated Log P, these compounds are very similar, such that this difference could not be anticipated. See, U.S. Provisional Appl. No. 62/568,028, filed Oct. 4, 2017, the content of which is incorporated by reference in its entirety."}}}
{"compound": "CCCCCCCCCCCCCC(=O)OC(C)C", "note": "[IPM, isopropyl myristate]", "values": [{"measurement": "effect on flux of dextromethorphan", "setting": "[1]", "result": "significant enhancement of flux was observed"}, {"measurement": "effect on skin permeation of DXM", "setting": "[1]", "result": "significantly enhance the skin permeation of DXM"}]}
{"compound": "COc1ccc2c(c1)[C@]13CCCC[C@@H]1[C@H](C2)N(C)CC3", "note": "[dextromethorphan]", "values": [{"measurement": "adverse reactions reported with the individual component", "setting": "[2]", "result": "drowsiness, dizziness, nervousness or restlessness, nausea, vomiting, and stomach pain"}]}
{"compound": "C[C@]12CC[C@H]3[C@@H](CCC4=CC(=O)CC[C@@]43C)[C@@H]1CC[C@@H]2O", "note": "[testosterone]", "values": [{"measurement": "transdermal delivery rate relative to beta estradiol", "setting": "[3]", "result": "three orders of magnitude higher"}]}
